# According to US11419918B2, “Treatment of biliary cirrhosis based on oxyntomodulin analogue GLP-1R/GCGR dual-target agonist peptide” (Shenzhen Turier Biotech Co., Ltd., priority 2017, dated 2022):
# Numbered stars: 1 amine (or outer) side, 2 acyl side, 3 side chain; on linkers, the order of the positions; unused ones are H or OH. Square brackets hold non-standard residues; d marks the D form. Primed or numbered codes have the meaning given here. Side chains are listed from the residue outwards. Ends that are not written are not given here. * marks the point of attachment. C18 diacid = O=C(O)CCCCCCCCCCCCCCCCC(=O)*; γGlu = O=C(O)[C@H](CCC(=O)[*:2])N[*:1]; Palmitoyl = CCCCCCCCCCCCCCCC(=O)*; Nle = CCCC[C@H](N)C(=O)O; PEG2′ = not defined here; Aib = CC(C)(N)C(=O)O
# What was measured:
# [1] = test system: human hepatic stellate cells (LX-2); assay: In vitro inhibition of hepatic fibrosis: expression of activation marker α-SMA in LX-2 cells (Western Blot, β-actin internal reference); format: cell-based; conditions: 10.0 μM, 48 hours, negative control (PBS) = 100%
# Summary of the method: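 LX-2 cells grown in DMEM high glucose + 10% FBS to ~70% confluence, then exposed to polypeptides (in PBS) at different doses for 48 h; PBS-only negative control. α-SMA quantified by Western blot densitometry normalised to β-actin, expressed relative to control set at 100%.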
# [2] = test system: BDL-induced cholestasis hepatic fibrosis in rats; assay: Bile duct ligation (BDL)-induced hepatic fibrosis in rats (biliary cirrhosis rat model); format: in vivo, SD rats; conditions: 50 μg/kg subcutaneous every two days, 14 days
# Procedure: 1. Experimental Drugs: polypeptide compounds 3, 6, 7, 10, 17, 20, 37, 38, 39, 40, 44, 46, Obeticholic Acid (Abbr. OCA, CAS:459789-99-2, purchased from Zhejiang Warrant Pharmaceutical Co., Ltd.) and Liraglutide. Saving condition was −20° C.
# 128 male SD rats with body weight of 200-230 g were randomly divided into sixteen groups, which were respectively:
# SD rats with body weight of 200-230 g at SPF level were provided by Lanzhou University Laboratory Animal Center. After rats were quarantined in the room (SPF environment) for one week, model rat and rat in sham-operated group were subject to intraperitoneal injection and anesthesia with 0.6% pentobarbital sodium solution, and operation was performed on a super clean bench after anesthesia. Bilateral ligation was conducted on model rat after the common bile duct was separated, and ligation was not conducted on rat in sham-operated group, but only the common bile duct was separated. Administration was started from the next day of the operation.
# Administration was started from the first day of the operation, and subcutaneous injection of compounds 3, 6, 7, 10, 17, 20, 37, 38, 39, 40, 44, 46 and Liraglutide with 50 μg/kg was performed every two days; intraperitoneal injection for the Obeticholic Acid administration group with 7.5 mg/kg was performed every day; as for the normal saline group, injection was performed every day. During the administration, changes in vital signs of rats were observed every day.
# After the end of two weeks of administration cycle (14 days), the rats were killed to collect materials for subsequent biological determination experiments. The livers were taken out for HE dye, Sirius Red dye and IHC dye. Image-pro plus and Graph pad software were used for statistics.
Substance,"Relative expression of α-SMA (α-SMA/β-actin, %) [1] [%]",ALT in the serum (FIG. 6) [2],"BDL-induced hepatic fibrosis and inflammation (HE, Sirius Red, IHC sections) [2]","collagenous fiber deposition in liver (Sirius Red dyed sections, FIGS. 2, 4) [2]",content of hydroxyproline of the liver (FIG. 7) [2],"α-SMA in liver (IHC dyed sections, FIGS. 3, 5) [2]"
His-(D-Ser)-Gln-Gly-Thr-Phe-Thr-Ser-Asp-Tyr-Ser-Lys-Tyr-Leu-Asp-Lys(PEG2-PEG2-γGlu-CO(CH2)14CH3)-Arg-Arg-Ala-Gln-Asp-Phe-Val-Gln-Trp-Leu-Met-Asn-Thr-Gly-Gly-Pro-Ser-Ser-Gly-Ala-Pro-Pro-Pro-Ser-NH2 (H[dS]QGTFTSDYSKYLDK([PEG2′-PEG2′-γGlu-Palmitoyl])RRAQDFVQWLMNTGGPSSGAPPPS-NH2) [Compound 6],29.19,significantly inhibit,significantly reduce,significantly inhibit,significantly inhibit,significantly inhibit
His-(D-Ser)-Gln-Gly-Thr-Phe-Thr-Ser-Asp-Tyr-Ser-Lys-Tyr-Leu-Asp-Aib-Lys(PEG2-PEG2-γGlu-CO(CH2)16CO2H)-Arg-Ala-Gln-Asp-Phe-Val-Gln-Trp-Leu-Met-Asn-Thr-Gly-Gly-Pro-Ser-Ser-Gly-Ala-Pro-Pro-Pro-Ser-NH2 (H[dS]QGTFTSDYSKYLD[Aib]K([PEG2′-PEG2′-γGlu-C18 diacid])RAQDFVQWLMNTGGPSSGAPPPS-NH2) [Compound 7],40.52,significantly inhibit,significantly reduce,significantly inhibit,significantly inhibit,significantly inhibit
His-(D-Ser)-Gln-Gly-Thr-Phe-Thr-Ser-Asp-Tyr-Ser-Lys-Tyr-Leu-Asp-Ser-Lys(PEG2-PEG2-γGlu-CO(CH2)16CO2H)-Ala-Ala-His-Asp-Phe-Val-Glu-Trp-Leu-Leu-Arg-Ala-NH2 (H[dS]QGTFTSDYSKYLDSK([PEG2′-PEG2′-γGlu-C18 diacid])AAHDFVEWLLRA-NH2) [Compound 17],35.38,significantly inhibit,significantly reduce,significantly inhibit,significantly inhibit,significantly inhibit
His-(D-Ser)-Gln-Gly-Thr-Phe-Thr-Ser-Asp-Tyr-Ser-Lys-Tyr-Leu-Asp-Lys(PEG2-PEG2-γGlu-CO(CH2)14CH3)-Arg-Arg-Ala-Gln-Asp-Phe-Val-Gln-Trp-Leu-Leu-Asn-Thr-Gly-Gly-Pro-Ser-Ser-Gly-Ala-Pro-Pro-Pro-Ser-NH2 (H[dS]QGTFTSDYSKYLDK([PEG2′-PEG2′-γGlu-Palmitoyl])RRAQDFVQWLLNTGGPSSGAPPPS-NH2) [Compound 40],37.55,significantly inhibit,significantly reduce,significantly inhibit,significantly inhibit,significantly inhibit
His-(D-Ser)-Gln-Gly-Thr-Phe-Thr-Ser-Asp-Lys(PEG2-PEG2-CO(CH2)16CO2H-Ser-Lys-Tyr-Leu-Asp-Aib-Arg-Arg-Ala-Gln-Asp-Phe-Val-Gln-Trp-Leu-Nle-Asn-Thr-Gly-Gly-Pro-Ser-Ser-Gly-Ala-Pro-Pro-Pro-Ser-NH2 (H[dS]QGTFTSDK([PEG2′-PEG2′-C18 diacid])SKYLD[Aib]RRAQDFVQWL[Nle]NTGGPSSGAPPPS-NH2) [Compound 46],36.84,significantly inhibit,significantly reduce,significantly inhibit,significantly inhibit,significantly inhibit
His-(D-Ser)-Gln-Gly-Thr-Phe-Thr-Ser-Asp-Tyr-Ser-Lys-Tyr-Leu-Asp-Lys(PEG2-PEG2-γGlu-CO(CH2)16CO2H)-Arg-Arg-Ala-Gln-Asp-Phe-Val-Gln-Trp-Leu-Leu-Asn-Thr-Gly-Gly-Pro-Ser-Ser-Gly-Ala-Pro-Pro-Pro-Ser-NH2 (H[dS]QGTFTSDYSKYLDK([PEG2′-PEG2′-γGlu-C18 diacid])RRAQDFVQWLLNTGGPSSGAPPPS-NH2) [Compound 39],41.68,significantly inhibit,significantly reduce,significantly inhibit,significantly inhibit,significantly inhibit
His-(D-Ser)-Gln-Gly-Thr-Phe-Thr-Ser-Asp-Tyr-Ser-Lys-Tyr-Leu-Asp-Lys(PEG2-PEG2-γGlu-CO(CH2)14CH3)-Arg-Arg-Ala-Gln-Asp-Phe-Val-Gln-Trp-Leu-Nle-Asn-Thr-Gly-Gly-Pro-Ser-Ser-Gly-Ala-Pro-Pro-Pro-Ser-NH2 (H[dS]QGTFTSDYSKYLDK([PEG2′-PEG2′-γGlu-Palmitoyl])RRAQDFVQWL[Nle]NTGGPSSGAPPPS-NH2) [Compound 37],29.95,significantly inhibit,significantly reduce,significantly inhibit,significantly inhibit,significantly inhibit
His-(D-Ser)-Gln-Gly-Thr-Phe-Thr-Ser-Asp-Tyr-Ser-Lys(PEG2-PEG2-γGlu-CO(CH2)16CO2H)-Lys-Leu-Asp-Aib-Arg-Arg-Ala-Gln-Asp-Phe-Val-Gln-Trp-Leu-Met-Asn-Thr-Gly-Gly-Pro-Ser-Ser-Gly-Ala-Pro-Pro-Pro-Ser-NH2 (H[dS]QGTFTSDYSK([PEG2′-PEG2′-γGlu-C18 diacid])KLD[Aib]RRAQDFVQWLMNTGGPSSGAPPPS-NH2) [Compound 20],28.39,significantly inhibit,significantly reduce,significantly inhibit,significantly inhibit,significantly inhibit
His-(D-Ser)-Gln-Gly-Thr-Phe-Thr-Ser-Asp-Tyr-Ser-Lys-Tyr-Leu-Asp-Aib-Lys(PEG2-PEG2-CO(CH2)16CO2H)-Arg-Ala-Gln-Asp-Phe-Val-Gln-Trp-Leu-Met-Asn-Thr-Gly-Gly-Pro-Ser-Ser-Gly-Ala-Pro-Pro-Pro-Ser-NH2 (H[dS]QGTFTSDYSKYLD[Aib]K([PEG2′-PEG2′-C18 diacid])RAQDFVQWLMNTGGPSSGAPPPS-NH2) [Compound 10],39.49,significantly inhibit,significantly reduce,significantly inhibit,significantly inhibit,significantly inhibit
His-(D-Ser)-Gln-Gly-Thr-Phe-Thr-Ser-Asp-Lys(PEG2-PEG2-CO(CH2)14CH3)-Ser-Lys-Tyr-Leu-Asp-Aib-Arg-Arg-Ala-Gln-Asp-Phe-Val-Gln-Trp-Leu-Leu-Asn-Thr-Gly-Gly-Pro-Ser-Ser-Gly-Ala-Pro-Pro-Pro-Ser-NH2 (H[dS]QGTFTSDK([PEG2′-PEG2′-Palmitoyl])SKYLD[Aib]RRAQDFVQWLLNTGGPSSGAPPPS-NH2) [Compound 44],39.19,significantly inhibit,significantly reduce,significantly inhibit,significantly inhibit,significantly inhibit
